How the values were obtained:
[1] = Hygroscopicity test according to the European Pharmacopoeia, 5.11; type: physicochemical; conditions: 80±2% relative humidity, 25° C., 24 hours
Description: The hygroscopicity test was carried out according to the European Pharmacopoeia, 5.11 Characters Section in Monographs at ambient temperature (about 25° C.) on substance “as is”.
Desiccator with saturated ammonium chloride solution was prepared as follows: to a 100 mL of water was added accurately weighed 46.3 g of ammonium chloride under mixing. The solubility of ammonium chloride in water at ambient temperature is about 41.4 g/100 mL water at 30° C. An amount of amorphous ibrutinib was placed in a glass weighing vessel with stopper (m1) and weighed (m2). The un-stoppered vessel was placed in a desiccator containing a saturated solution of ammonium chloride (80±2% relative humidity) at 25° C. for 24 hours. The weighing vessel was stoppered and weighed (m3). The percentage increase in mass was calculated according to the following formula: […]
The following Table 10 includes the standard defined hygroscopicity values according to the European Pharmacopoeia, 5.11 Characters Section in Monographs: […]

[2] = rats; cited from earlier work

degree of hygroscopicity [1] | Increase in mass % ([1]; substance as is) [%] | Increase in mass g ([1]; m3 minus m2) [g] | SMILES | oral bioavailability [2] [%]
slightly hygroscopic | 1.24 | 0.01077 | C=CC(=O)N1CCC[C@@H](n2nc(-c3ccc(Oc4ccccc4)cc3)c3c(N)ncnc32)C1 [amorphous ibrutinib] | –
– | – | – | C=CC(=O)N1CCC[C@@H](n2nc(-c3ccc(Oc4ccccc4)cc3)c3c(N)ncnc32)C1 [ibrutinib, 1-[(3R)-3-[4-amino-3-(4-phenoxyphenyl)-1H-pyrazolo[3,4-d]pyrimidin-1-yl]piperidin-1-yl]prop-2-en-1-one] | 22.8
